Here are results for 8 molecules from patent US9896441B2 (Lycera Corporation, priority 2014, dated 2018).

For one assay, the target named is T1, RORγ-LBD (Homo sapiens, UniProt P51449).
T1 construct: made in house; host or cells: SF9 cells (baculovirus); used as diluted lysate
T1 sequence (P51449 269-508 limits assumed): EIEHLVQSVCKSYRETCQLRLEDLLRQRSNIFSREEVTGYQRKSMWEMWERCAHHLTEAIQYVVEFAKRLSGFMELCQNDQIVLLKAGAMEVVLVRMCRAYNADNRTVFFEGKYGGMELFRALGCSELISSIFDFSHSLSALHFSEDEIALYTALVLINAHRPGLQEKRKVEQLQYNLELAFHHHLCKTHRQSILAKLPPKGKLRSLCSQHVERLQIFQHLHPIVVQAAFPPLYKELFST
Description: RORγ-Ligand Binding Domain (LBD) TR-FRET Assay.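 As to TR-FRET Assay Max Response: 665/615 nm signal ratio set to 100 without ursolic acid or test compound.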 The assay is classed as biochemical. The conditions noted are these: for TR-FRET Assay Max Response: maximum response. In a few lines: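 TR-FRET read-out using a biotin-tagged SRC1 coactivator LXXLL peptide (200 nM final), with the antagonist ursolic acid present at 2 μM final. Receptor is His-tagged LBD expressed in SF9 cells, ~3 nM final in pH 7.0 Tris/KCl/EDTA/DTT/BSA buffer; compounds in 1% DMSO final.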

The next assay concerns the target T2, Gal4-RORγ-LBD (Homo sapiens, UniProt P51449).
T2 construct: expressed in transfected cells
T2 sequence (P51449 269-508 limits assumed): T1 sequence (P51449 269-508 limits assumed)
Description: Gal4-RORγ Luciferase Reporter Assay in HEK-293T Cells. The assay is classed as cell-based. The conditions noted are these: HEK-293 cells; for Gal4-RORγ Assay Max Response: maximum response. In a few lines:
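Max Response was taken as the upper plateau of a 4-parameter logistic fit of luciferase signal, normalized to 100 for wells without ursolic acid or compound. Transiently Gal4-RORγ-LBD/Gal4-luc transfected HEK-293 cells carrying […] ursolic acid were incubated with test compounds (0.2% DMSO) overnight at 37 °C and read with One-Glo.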
On the technique in general: Reporter assays use an easily measured gene product as a stand-in for the process of interest.

Where [1] appears, read: luciferase reporter, with ursolic acid.
[2] abbreviates: luciferase reporter, in presence of ursolic acid.

For the molecule `CC/C(=C\c1ccc2c(c1)N(S(=O)(=O)c1cc(C(F)(F)F)cnc1OCCO)C[C@H](CCC(=O)O)O2)C(C)C` [Example 191E, (S,E)-3-(6-(2-ethyl-3-methylbut-1-en-1-yl)-4-((2-(2-hydroxy-ethoxy)-5-(trifluoromethyl)-pyridin-3-yl)sulfonyl)-3,4-dihydro-2H-benzo[b][1,4]oxazin-2-yl)propanoic acid], the EC50 (in general, the concentration that produces a half-maximal response) is below 0.5 µM on RORγ-LBD (with 2 μM ursolic acid (RORγ antagonist), highest test concentration 10 μM) and 0.5 to 5 µM on Gal4-RORγ-LBD (ursolic acid present, luciferase readout).

For `O=C(O)CC[C@H]1CN(S(=O)(=O)c2cc(C(F)(F)F)cnc2OCCO)c2cc(/C=C/c3c(F)cccc3Cl)ccc2O1` [Example 89EC, (S,E)-3-(6-(2-chloro-6-fluorostyryl)-4-((2-(2-hydroxyethoxy)-5-(trifluoromethyl)-pyridin-3-yl)sulfonyl)-3,4-dihydro-2H-benzo[b][1,4]oxazin-2-yl)propanoic acid], the EC50 at RORγ-LBD (RORγ-LBD TR-FRET) was below 0.5 µM; on Gal4-RORγ-LBD (setting [1]) it was 0.5 to 5 µM.

For the molecule `CCOc1nn(CC)cc1S(=O)(=O)N1C[C@H](CCC(=O)OC)Oc2ccc(/C=C/c3c(F)cccc3F)cc21` [Example 89AF, (S,E)-methyl 3-(6-(2,6-difluorostyryl)-4-((3-ethoxy-1-ethyl-1H-pyrazol-4-yl)sulfonyl)-3,4-dihydro-2H-benzo[b][1,4]oxazin-2-yl)propanoate], the EC50 at RORγ-LBD (RORγ-LBD TR-FRET) is below 0.5 µM; on Gal4-RORγ-LBD (setting [1]) it was above 10 µM.

As to `CCOc1nn(CC)cc1S(=O)(=O)N1C[C@H](CCC(=O)O)Oc2ccc(/C=C/c3ccc(Cl)cc3)cc21` [Example 89DB, (S,E)-3-(6-(4-chlorostyryl)-4-((3-ethoxy-1-ethyl-1H-pyrazol-4-yl)sulfonyl)-3,4-dihydro-2H-benzo[b][1,4]oxazin-2-yl)propanoic acid], the EC50 at RORγ-LBD (RORγ-LBD TR-FRET) and at Gal4-RORγ-LBD (setting [1]) was above 10 µM throughout.

Regarding `C/C(=C\c1ccc2c(c1)N(S(=O)(=O)c1cccc(C(F)(F)F)c1)C[C@H](CCC(=O)O)O2)c1c(C)noc1C` [Example 86AC, (S,E)-3-(6-(2-(3,5-dimethylisoxazol-4-yl)prop-1-en-1-yl)-4-((3-(trifluoromethyl)phenyl)sulfonyl)-3,4-dihydro-2H-benzo[b][1,4]oxazin-2-yl)propanoic acid], the EC50 at RORγ-LBD (RORγ-LBD TR-FRET) was below 0.5 µM; at Gal4-RORγ-LBD (setting [1]) it was above 10 µM.

With `C/C(=C\c1ccc2c(c1)N(S(=O)(=O)c1cccc(C(F)(F)F)c1)C[C@H](CCNC(=O)C1CC1)O2)c1c(F)cccc1Cl` [Example 113, (S,E)-N-(2-(6-(2-(2-Chloro-6-fluorophenyl)prop-1-en-1-yl)-4-((3-(trifluoromethyl)phenyl)sulfonyl)-3,4-dihydro-2H-benzo[b][1,4]oxazin-2-yl)ethyl)cyclopropanecarboxamide], on RORγ-LBD (RORγ-LBD TR-FRET assay), the EC50 was below 0.5 µM and the “TR-FRET Assay Max Response” value is “*** (a value in the range of greater than 150 to 200)”. Moreover, at Gal4-RORγ-LBD (setting [2]), the EC50 was below 0.5 µM and the “Gal4-RORγ Assay Max Response” value is “** (a value in the range of greater than 90 to 150)”.

Regarding `C/C(=C\c1ccc2c(c1)N(S(=O)(=O)c1cccc(C(F)(F)F)c1)C[C@H](CO)O2)c1c(F)cccc1Cl` [Example 125, (R,E)-(6-(2-(2-Chloro-6-fluorophenyl)prop-1-en-1-yl)-4-((3-(trifluoromethyl)phenyl)sulfonyl)-3,4-dihydro-2-h-benzo[b][1,4]oxazin-2-yl)methanol], at RORγ-LBD (RORγ-LBD TR-FRET assay), the EC50 was below 0.5 µM and the “TR-FRET Assay Max Response” value was “*** (a value in the range of greater than 150 to 200)”. Besides, on Gal4-RORγ-LBD (setting [2]), the EC50 was below 0.5 µM and the “Gal4-RORγ Assay Max Response” value was “** (a value in the range of greater than 90 to 150)”.

As to `O=C(O)CC[C@H]1CN(S(=O)(=O)c2cccc(OC(F)F)c2)c2cc(/C=C/c3c(Cl)cccc3C(F)(F)F)ccc2O1` [Example 89DQ, (S,E)-3-(6-(2-chloro-6-(trifluoromethyl)styryl)-4-((3-(difluoromethoxy)phenyl)sulfonyl)-3,4-dihydro-2H-benzo[b][1,4]oxazin-2-yl)propanoic acid], the concentration giving a half-maximal response (EC50) at RORγ-LBD (RORγ-LBD TR-FRET) and on Gal4-RORγ-LBD (setting [1]) was below 0.5 µM in each case.
